pIC50: −log10 of the molar value.
What follows are compounds tested on pERK in NCI-H358 cells (assay: Cell-based pERK HTRF assay (pERK inhibition in H358 cells)). Conditions: Homo sapiens, NCI-H358, 0.5 h, pERK inhibition IC50, NCI-H358 cells, 30 min incubation; read-out: PERK in H358 cell.
Method: On Day 1, cells (NCI-H358) were seeded into 96-well plates at 4×10^4 cells/well in complete growth media (RPMI, 10% FBS).
The source plate was created with compounds diluted in media at 5-fold the final assay concentration. […] 20 μL was transferred onto the cell plates (final volume in wells was 100 μL). Plates were harvested after 30 min incubation by aspirating media and adding kit-supplied 1× supplemented lysis buffer to all wells (75 μl per well). Plates were then placed on a plate shaker and incubated at 850 rpm for an additional 30 min.
Antibody mixture solution was prepared by diluting aliquoted d2 and Eu Cryptate antibodies 1:20 in kit supplied detection buffer, then mixed the diluted antibodies solutions (1:1 v:v).
Samples were homogenized by pipetting up and down and then transferred (16 μL of cell lysates) from the 96-well cell culture plate to two wells of the HTRF 384-well detection plate containing the antibody solution. Plates were centrifuged (524 g for 1 min) and allowed to incubate between 4 and 24 h at room temperature. Maximum signal is reached after 4 h incubation time and remains stable over a period of 24 hours. Therefore, readings can be made between 4 and 24 h of incubation.

| pIC50 | Compound |
| --- | --- |
| > 7.00 | C=CC(=O)N1C[C@H](C)N(c2nc(OC[C@@H]3CCCN3C)nc3c(F)c(-c4ccc(F)c5sc(N)c(C#N)c45)c(C(F)(F)F)cc23)C[C@H]1C [Compound 363, 4-(4-((2S,5R)-4-acryloyl-2,5-dimethylpiperazin-1-yl)-8-fluoro-2-(((S)-1-methylpyrrolidin-2-yl)methoxy)-6-(trifluoromethyl)quinazolin-7-yl)-2-amino-7-fluorobenzo[b]thiophene-3-carbonitrile] |
| > 7.00 | C=CC(=O)N1C[C@H](C)N(c2nc(OC[C@]34CCCN3C[C@H](OC)C4)nc3c(F)c(-c4ccc(F)c5sc(N)nc45)c(C(F)(F)F)cc23)C[C@H]1C [Compound 269] |
| > 7.00 | C=CC(=O)N1CC[C@@H](N(C)c2nc(OC[C@@]34CCCN3C[C@H](F)C4)nc3c(F)c(-c4ccc(F)c5sc(N)c(C#N)c45)c(C(F)(F)F)cc23)[C@H]1C [Compound 381, 4-(4-(((2R,3R)-1-acryloyl-2-methylpyrrolidin-3-yl)(methyl)amino)-8-fluoro-2-(((2R,7aS)-2-fluorotetrahydro-1H-pyrrolizin-7a(5H)-yl)methoxy)-6-(trifluoromethyl)quinazolin-7-yl)-2-amino-7-fluorobenzo[b]thiophene-3-carbonitrile] |
| 6.00 to 7.00 | C=C(F)C(=O)N1CCN(c2nc(OC[C@]34CCCN3C[C@H](F)C4)nc3c(F)c(-c4ccc(F)c5sc(N)nc45)c(C(F)(F)F)cc23)C[C@H]1C [Compound 191] |
| 6.00 to 7.00 | C=C(F)C(=O)N1CCN(c2nc(OC[C@@]34CCCN3C[C@H](F)C4)nc3c(F)c(-c4ccc(F)c5sc(N)nc45)c(C(F)(F)F)cc23)CC1 [Compound 186] |
| > 7.00 | C=CC(=O)N1CCC(N(C)c2nc(OC[C@@H]3C[C@@H](F)CN3C)nc3c(F)c(-c4ccc(F)c5sc(N)c(C#N)c45)c(C(F)(F)F)cc23)[C@H]1COC (stereo partly shown) [Compound 443] |
| 6.00 to 7.00 | C=CC(=O)N1CC[C@@H](N(C)c2nc(OC[C@@]34CCCN3C[C@H](F)C4)nc3c(F)c(-c4ccc(F)c5sc(N)nc45)c(C#N)cc23)[C@H]1C [Compound 373] |
| < 6.00 | C=CC(=O)N1CC(Nc2nc(OCC34CCCN3CCC4)nc3c(F)c(-c4ccc(F)c5sc(N)nc45)c(Cl)cc23)C1 [Compound 49, 1-(3-((7-(2-amino-7-fluorobenzo[d]thiazol-4-yl)-6-chloro-8-fluoro-2-((tetrahydro-1H-pyrrolizin-7a(5H)-yl)methoxy)quinazolin-4-yl)amino)azetidin-1-yl)prop-2-en-1-one] |
| 6.00 to 7.00 | C=C(F)C(=O)N1C[C@H](C)N(c2nc(OC[C@]34CCCN3C[C@H](F)C4)nc3c(F)c(-c4ccc(F)c5sc(N)nc45)c(C(F)(F)F)cc23)C[C@H]1C [Compound 205] |
| > 7.00 | C=CC(=O)N1CCC(N(C)c2nc(OC[C@@]34CCCN3C[C@H](F)C4)nc3c(C#N)c(-c4ccc(F)c5sc(N)c(C#N)c45)c(Cl)cc23)[C@H]1C (stereo partly drawn) [Compound 388, 4-((1-acryloyl-2-methylpyrrolidin-3-yl)(methyl)amino)-7-(2-amino-3-cyano-7-fluorobenzo[b]thiophen-4-yl)-6-chloro-2-(((2R,7aS)-2-fluorotetrahydro-1H-pyrrolizin-7a(5H)-yl)methoxy)quinazoline-8-carbonitrile] |
| 6.00 to 7.00 | C=CC(=O)N1CC[C@@H](N(C)c2nc(OC[C@@H]3CCCN3C)nc3c(F)c(-c4ccc(F)c5sc(N)nc45)c(C(F)(F)F)cc23)C1 [Compound 230] |
| > 7.00 | C=CC(=O)N1CC[C@@H](N(C)c2nc(OC[C@@]34CCCN3C[C@H](F)C4)nc3cc(-c4ccc(F)c5sc(N)c(C#N)c45)c(F)cc23)[C@H]1C [Compound 390, 4-(4-((1-acryloyl-2-methylpyrrolidin-3-yl)(methyl)amino)-6-fluoro-2-(((2R,7aS)-2-fluorotetrahydro-1H-pyrrolizin-7a(5H)-yl)methoxy)quinazolin-7-yl)-2-amino-7-fluorobenzo[b]thiophene-3-carbonitrile] |
| > 7.00 | C=CC(=O)N1CCN(c2nc(OC[C@]34CCCN3C[C@H](F)C4)nc3c(F)c(-c4ccc(F)c5sc(N)nc45)c(C(F)(F)F)cc23)C[C@H]1C [Compound 190] |
| < 6.00 | C=CC(=O)N1C[C@@H](N(C)c2nc(OC[C@@]34CCCN3C[C@H](F)C4)nc3c(F)c(-c4ccc(F)c5sc(N)nc45)c(C(F)(F)F)cc23)C(C)(C)C1 [Compound 283] |
| > 7.00 | C=CC(=O)N1CC[C@@H](N(C)c2nc(OC[C@@]34CCCN3C[C@H](F)C4)nc3c(F)c(-c4ccc(F)c5sc(N)c(C#N)c45)c(C(F)(F)F)cc23)[C@H]1COC [Compound 401] |
| > 7.00 | C=CC(=O)N1CC[C@@H](N(CC)c2nc(OC[C@@]34CCCN3C[C@H](F)C4)nc3c(F)c(-c4ccc(F)c5sc(N)c(C#N)c45)c(C(F)(F)F)cc23)C1 [Compound 348, 4-(4-(((R)-1-acryloylpyrrolidin-3-yl)(ethyl)amino)-8-fluoro-2-(((2R,7aS)-2-fluorotetrahydro-1H-pyrrolizin-7a(5H)-yl)methoxy)-6-(trifluoromethyl)quinazolin-7-yl)-2-amino-7-fluorobenzo[b]thiophene-3-carbonitrile] |
| < 6.00 | C=CC(=O)N1CCN(c2nc(OCC34CCCN3CCC4)nc3c(F)c(-c4ccc(F)c5sc(N)nc45)c(C(C)(F)F)cc23)CC1 [Compound 284] |

| pIC50 | Compound |
| --- | --- |
| > 7.00 | C=CC(=O)N1CCC(N(C)c2nc(OC[C@@H]3C[C@@H](OC)CN3C)nc3c(F)c(-c4ccc(F)c5sc(N)c(C#N)c45)c(Cl)cc23)[C@H]1C (stereo partly shown) [Compound 450] |
| > 7.00 | C=CC(=O)N1C[C@H](C)N(c2nc(OC[C@]34CCCN3C[C@@H](F)C4)nc3c(F)c(-c4ccc(F)c5sc(N)c(C#N)c45)c(C(F)(F)F)cc23)C[C@H]1C [Compound 334] |
| > 7.00 | C=CC(=O)N1C[C@H](C)N(c2nc(OCC3(CN4CCOCC4)CC3)nc3c(F)c(-c4ccc(F)c5sc(N)nc45)c(C(F)(F)F)cc23)C[C@H]1C [Compound 285] |
| > 7.00 | C=CC(=O)N1CCC(N(C)c2nc(OC[C@@]34CCCN3C[C@H](F)C4)nc3cc(-c4ccc(F)c5sc(N)c(C#N)c45)ccc23)[C@H]1COC (stereo partly drawn) [Compound 389, 4-(4-((1-acryloyl-2-(methoxymethyl)pyrrolidin-3-yl)(methyl)amino)-2-(((2R,7aS)-2-fluorotetrahydro-1H-pyrrolizin-7a(5H)-yl)methoxy)quinazolin-7-yl)-2-amino-7-fluorobenzo[b]thiophene-3-carbonitrile] |
| < 6.00 | C=CC(=O)N1CCC(N(C)c2ncnc3c(F)c(-c4ccc(F)c5sc(N)c(C#N)c45)ccc23)[C@H]1C (stereo partly shown) [Compound 462] |
| > 7.00 | C=CC(=O)N1C[C@H](C)N(c2nc(OC[C@@H]3CC4(CC4)CN3C)nc3c(F)c(-c4ccc(F)c5sc(N)c(C#N)c45)c(C(F)(F)F)cc23)C[C@H]1C [Compound 410, 4-(4-((2S,5R)-4-acryloyl-2,5-dimethylpiperazin-1-yl)-8-fluoro-2-(((S)-5-methyl-5-azaspiro[2.4]heptan-6-yl)methoxy)-6-(trifluoromethyl)quinazolin-7-yl)-2-amino-7-fluorobenzo[b]thiophene-3-carbonitrile] |
| 6.00 to 7.00 | C=CC(=O)N1CC[C@@H]2[C@H]1CN2c1nc(OCC23CCCN2CCC3)nc2c(F)c(-c3ccc(F)c4sc(N)nc34)c(Cl)cc12 [Compound 65] |
| > 7.00 | C=CC(=O)N1CCC(N(C)c2nc(OC[C@@H]3CCCN3C)nc3c(F)c(-c4ccc(F)c5sc(N)c(C#N)c45)ccc23)[C@H]1C (stereo partly shown) [Compound 420] |
| < 6.00 | CC#CC(=O)N1CCN(c2nc(OCC34CCCN3CC(F)(F)C4)nc3c(F)c(-c4ccc(F)c5sc(N)nc45)c(C(F)(F)F)cc23)CC1 (stereo not shown) [Compound 193] |
| > 7.00 | C=CC(=O)N1CC[C@@H](N(C)c2nc(OC[C@@]34CCCN3C[C@H](F)C4)nc3c(Cl)c(-c4ccc(F)c5sc(N)nc45)c(C(F)(F)F)cc23)C1 (single isomer, unassigned) [Compound 302] |
| > 7.00 | C=CC(=O)N1CCC(N(CC)c2nc(OC[C@@H]3C[C@@H](OC)CN3C)nc3c(F)c(-c4ccc(F)c5sc(N)c(C#N)c45)c(C(F)(F)F)cc23)[C@H]1COC (stereo partly shown) [Compound 427] |
| 6.00 to 7.00 | C=CC(=O)N1CCC(N(C)c2nc(OC[C@@H]3C[C@@H](OC)CN3C)nc3cc(-c4ccc(F)c5sc(N)c(C#N)c45)c(C#N)cc23)[C@H]1COC (stereo partly shown) [Compound 465] |
| > 7.00 | C=CC(=O)N1C[C@@H](F)[C@@H](N(C)c2nc(OC[C@@H]3C[C@@H](F)CN3C)nc3cc(-c4ccc(F)c5sc(N)c(C#N)c45)c(C(F)(F)F)cc23)C1 [Compound 356] |
| 6.00 to 7.00 | C=CC(=O)N1CCC(N(C)c2nc(OCCO)nc3c(F)c(-c4ccc(F)c5sc(N)c(C#N)c45)ccc23)[C@H]1C (stereo partly shown) [Compound 468] |
| > 7.00 | C=CC(=O)N1CCN(c2nc(OC[C@@H]3CCCN3C)nc3c(F)c(-c4ccc(F)c5sc(N)nc45)c(C(F)(F)F)cc23)CC1 [Compound 71, 1-(4-(7-(2-amino-7-fluorobenzo[d]thiazol-4-yl)-8-fluoro-2-(((S)-1-methylpyrrolidin-2-yl)methoxy)-6-(trifluoromethyl)quinazolin-4-yl)piperazin-1-yl)prop-2-en-1-one] |
| 6.00 to 7.00 | C=CC(=O)N1CC[C@H](N(C)c2nc(OC[C@@]34CCCN3C[C@H](F)C4)nc3c(F)c(-c4ccc(F)c5sc(N)nc45)c(Cl)cc23)C1 [Compound 185] |

Same assay, conditions: pERK inhibition IC50, NCI-H358 cells, 30 min incubation; read-out: PERK in H358 cell

| pIC50 | Compound |
| --- | --- |
| 6.00 to 7.00 | C=CC(=O)N1CCC[C@@H](N(C)c2nc(OC[C@@]34CCCN3C[C@H](F)C4)nc3c(F)c(-c4ccc(F)c5sc(N)nc45)c(Cl)cc23)C1 (atropisomer, axis not shown) [Compound 242] |

Source: US12528818B2, “Compositions and methods for inhibition of RAS” (Leidos Biomedical Research, Inc., priority 2021, dated 2026)
